In brackets after ≈: the same amount, converted by molar mass. Read-outs that look alike come from different tables or passages of the source. Numbered stars: 1 amine (or outer) side, 2 acyl side, 3 side chain; on linkers, the order of the positions; unused ones are H or OH. Bridge positions count the residues as written; N and C are the ends. Square brackets hold non-standard residues; d marks the D form. Peptide text beside a SMILES is read from it. * marks the point of attachment. Morpholine(3S-CO) = O=C(O)[C@@H]1COCCN1; Phe(3-Me) = Cc1cccc(C[C@H](N)C(=O)O)c1; X4 = O=C1CN([*:1])[C@H](C(=O)[*:2])CN1; NH(4-Cl-2-F-phenyl) = Fc1cc(Cl)ccc1N*; Pro(4R-Me) = C[C@H]1CN[C@H](C(=O)O)C1; Hyp = O=C(O)[C@@H]1C[C@@H](O)CN1; NH(4-Et-phenyl) = CCc1ccc(N*)cc1; NH(4-Me-phenyl) = Cc1ccc(N*)cc1; aThr = C[C@H](O)[C@H](N)C(=O)O; Pip = O=C(O)[C@@H]1CCCCN1; CO = O=C([*:1])[*:2]
Tests used:
S. aureus ΔClpP = assay: Minimal inhibitory concentration, microbroth dilution; format: cell-based, Staphylococcus aureus; conditions: MIC; ClpP inactivated
Summary of the method: (§1)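 Following CLSI M7-A7 microbroth dilution, twofold serial dilutions of compound (top final concentration 200 μM) were combined with an equal volume of broth inoculum at about 10^5 cfu/mL. Plates were incubated aerobically at 37 °C overnight, and the MIC was the lowest concentration preventing visible growth.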

[1] = Microsomal metabolic stability; format: in vitro ADME, mouse
Summary of the method: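 CD-1 mouse liver microsomes (0.6381 mg/mL protein microsomal solution, 0.1 M potassium phosphate pH 7.4 with EDTA) were incubated with compound and an NADPH-regenerating system at 37 °C, in triplicate. Acetonitrile/warfarin quench at 0, 15, 30, 60, 120 and 240 min, then LCMS. Half-life came from a first-order least-squares fit.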

Sa-ClpP = biological target: T1, Sa-ClpP (Staphylococcus aureus, UniProt Q2G036); assay: ADEP displacement fluorescence polarization assay; format: binding, S. aureus; conditions: displacement of FP probe ADEP 2591 from Sa-ClpP
T1 construct: made in house; host or cells: E. coli BL21 (DE3)
Description: A fluorescence polarization (FP) assay was used to determine the activity of the disclosed compounds in displacing an ADEP analogue from ClpP. Briefly, the assay was performed in black 384 well, flat bottom, low volume plates (Greiner Bio-One, Monroe, N.C., catalog #784076). 20 μL of a pre-equilibrated (1 hr, room temperature) master mix (15 μM Sa-ClpP, 2% DMSO (v/v) and 50 nM FP probe in TrisHCl, pH 8.0)) was pipetted into each well using a Well-Mate (Thermo Scientific, Waltham, Mass.). Sa-ClpP was prepared as described above for the ClpP activation assay. The FP probe was ADEP 2591 (structure shown above). The ADEP 2591 comprises a TAMRA fluorophore linked to a core based on modified ADEP 2378 via a short alkyl linker. Using pin transfer, approximately 0.4 μL (2% v/v DMSO) of each compound or control was added per well. After addition of compounds and controls, plates were allowed to incubate for an additional 120 minutes at room temperature. All assays were performed in triplicate. Polarization was monitored using an EnVision Multilabel reader (Perkin-Elmer, Waltham, Mass.) by exciting the FP probe at 530±25 nm, and monitoring fluorescence intensity of both parallel and perpendicular polarized light at 579±25 nm. Readout was in millipolarization units (mP).
Signal gain and G factors were determined in wells containing 200 μM ADEP 2378, which had been previously verified (data not shown) as containing completely unbound ADEP 2591. Data collected was normalized to values obtained from positive (200 μM ADEP 2378) or negative (DMSO) controls. Curves were fit with non-linear regression using the equation “log [inhibitor] vs. Response-variable slope (four parameters)-symmetrical” in the program Prism 6 (GraphPad Software, La Jolla, Calif. USA, www.graphpad.com). The structures for ADEP 2378 and ADEP 2591 are shown above. ADEP 2378 is (E)-N—((S)-1-(((2R,6S,8aS,14aS,20S,23aS)-2,6-dimethyl-5,8,14,19,23-pentaoxooctadecahydro-1H,5H,14H,19H-pyrido[2,1-i]dipyrrolo[2,1-c:2′,1′-1][1]oxa[4,7,10,13]tetraazacyclohexadecin-20-yl)amino)-1-oxo-3-phenylpropan-2-yl)pent-2-enamide. ADEP 2591 is 5-(3-(3-((6S,9S,11aS,17S,20aS)-6,10-dimethyl-5,8,11,16,20-pentaoxo-17-((S)-2-((E)-pent-2-enamido)-3-phenylpropanamido)hexadecahydro-1H,5H,16H-dipyrrolo[2,1-c:2′,1′-1][1]oxa[4,7,10,13]tetraazacyclohexadecin-9-yl)propyl)thioureido)-2-(6-(dimethylamino)-3-(dimethyliminio)-3H-xanthen-9-yl)benzoate.

S. aureus ATCC 29213 = assay: Minimal inhibitory concentration, microbroth dilution; format: cell-based; conditions: Staphylococcus aureus
Summary of the method: as §1

S. aureus USA 300 = assay: as above; format: cell-based; conditions: Staphylococcus aureus
Summary of the method: as §1

E. faecails = assay: as above; format: cell-based; conditions: Enterococcus faecalis
Summary of the method: as §1

MRSA NRS70 = assay: as above; format: cell-based; conditions: Staphylococcus aureus
Summary of the method: as §1

[2] = ATCC29213, MIC, read-out: Minimal Inhibitory Concentrations (μM) S. aureus ATCC 29213
[3] = USA300, MIC, read-out: Minimal Inhibitory Concentrations (μM) S. aureus USA 300
[4] = MIC, read-out: Minimal Inhibitory Concentrations (μM) E. faecails
[5] = MIC, read-out: Minimal Inhibitory Concentrations (μM) MRSA NRS70

T1 sequence (Q2G036 whole entry): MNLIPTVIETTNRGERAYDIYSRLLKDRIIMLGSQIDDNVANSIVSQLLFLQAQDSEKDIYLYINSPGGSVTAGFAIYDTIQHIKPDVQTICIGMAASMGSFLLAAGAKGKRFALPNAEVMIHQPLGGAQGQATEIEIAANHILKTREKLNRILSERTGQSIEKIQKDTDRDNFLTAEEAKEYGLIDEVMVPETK

| Compound | Minimal Inhibitory Concentrations (μM) S. aureus ΔClpP (S. aureus ΔClpP) [µM] | Mouse ([1]; microsomal metabolic stability half-life, mouse liver microsomes) [h] | IC50 (Sa-ClpP) [µM] | MIC (S. aureus ATCC 29213; ATCC29213, read-out: Minimal Inhibitory Concentrations (μM) S. aureus ATCC 29213, MIC) [µM] | MIC (S. aureus USA 300; USA300, read-out: Minimal Inhibitory Concentrations (μM) S. aureus USA 300, MIC) [µM] | MIC (E. faecails; read-out: Minimal Inhibitory Concentrations (μM) E. faecails, MIC) [µM] | MIC (MRSA NRS70; read-out: Minimal Inhibitory Concentrations (μM) MRSA NRS70, MIC) [µM] | Mouse ([1]; CD-1, mouse, pH 7.4) [h] | MIC (S. aureus ATCC 29213; [2]) [µM] | MIC (S. aureus USA 300; [3]) [µM] | MIC (E. faecails; [4]) [µM] | MIC (MRSA NRS70; [5]) [µM] |
| --- | --- | --- | --- | --- | --- | --- | --- | --- | --- | --- | --- | --- |
| Cc1ccc(NC(=O)N[C@@H](Cc2cccc(C)c2)C(=O)N[C@@H]2C(=O)N3CCC[C@H]3C(=O)N3CCCC[C@H]3C(=O)N[C@@H](C)C(=O)N3C[C@H](C)C[C@H]3C(=O)O[C@H]2C)cc1 [Compound 1, (S)-3-(M-TOLYL)-2-(3-(P-TOLYL)UREIDO)-N-((2R,6S,8AS,14AS,20S,21S,23AS)-2,6,21-TRIMETHYL-5,8,14,19,23-PENTAOXOOCTADECAHYDRO-1H,5H,14H,19H-PYRIDO[2,1-I]DIPYRROLO[2,1-C:2′,1′-L][1]OXA[4,7,10,13]TETRAAZACYCLOHEXADECIN-20-YL)PROPANAMIDE] ({NH(4-Me-phenyl)-CO}-[Phe(3-Me)][aThr]P[Pip]A[Pro(4R-Me)]; ester 2-C) | 200 | 5.22 | 7.48 ± 0.5 | 0.313 (≈ 0.246 µg/mL) | < 0.098 | 1.25 (≈ 0.982 µg/mL) | 0.156 (≈ 0.123 µg/mL) |  |  |  |  |  |
| Cc1cccc(C[C@H](NC(=O)Nc2ccc(Cl)cc2F)C(=O)N[C@@H]2C(=O)N3CCC[C@H]3C(=O)N3CC(=O)NC[C@H]3C(=O)N[C@@H](C)C(=O)N3C[C@H](C)C[C@H]3C(=O)O[C@H]2C)c1 [Compound 20, (S)-2-(3-(4-CHLORO-2-FLUOROPHENYL)UREIDO)-3-(M-TOLYL)-N-((6AS,12S,13S,15AS,17R,21S,23AS)-13,17,21-TRIMETHYL-3,6,11,15,20,23-HEXAOXOOCTADECAHYDRO-2H,6H,11H,15H-PYRAZINO[2,1-I]DIPYRROLO[2,1-C:2′,1′-L][1]OXA[4,7,10,13]TETRAAZACYCLOHEXADECIN-12-YL)PROPANAMIDE] ({NH(4-Cl-2-F-phenyl)-CO}-[Phe(3-Me)][aThr]P[X4]A[Pro(4R-Me)]; ester 2-C) | >20 |  | 4.21 ± 0.2 |  |  |  |  | 6.24 ± 0.7 | 1.25 (≈ 1.05 µg/mL) | 5 (≈ 4.2 µg/mL) | 2.5 (≈ 2.1 µg/mL) | 5 (≈ 4.2 µg/mL) |
| CCc1ccc(NC(=O)N[C@@H](Cc2cccc(C)c2)C(=O)N[C@@H]2C(=O)N3C[C@H](O)C[C@H]3C(=O)N3CCOC[C@H]3C(=O)N[C@@H](C)C(=O)N3C[C@H](C)C[C@H]3C(=O)O[C@H]2C)cc1 [Compound 24, (S)-2-(3-(4-ETHYLPHENYL)UREIDO)-N-((6AS,8R,12S,13S,15AS,17R,21S,23AS)-8-HYDROXY-13,17,21-TRIMETHYL-6,11,15,20,23-PENTAOXOOCTADECAHYDRO-6H,11H,15H-[1,4]OXAZINO[3,4-I]DIPYRROLO[2,1-C:2′,1′-L][1]OXA[4,7,10,13]TETRAAZACYCLOHEXADECIN-12-YL)-3-(M-TOLYL)PROPANAMIDE] ({NH(4-Et-phenyl)-CO}-[Phe(3-Me)][aThr][Hyp][Morpholine(3S-CO)]A[Pro(4R-Me)]; ester 2-C) | >20 |  | 2.31 ± 0.2 |  |  |  |  | 1.03 ± 0.05 | 0.313 (≈ 0.256 µg/mL) | 0.313 (≈ 0.256 µg/mL) | 0.156 (≈ 0.128 µg/mL) | 0.156 (≈ 0.128 µg/mL) |

Source: patent publication US10570179B2, “Substituted urea depsipeptide analogs as activators of the CLPP endopeptidase” (priority 2016, dated 2020)
